Tests used:
[1] = Beverage swallowing test: duration of cooling in throat and chest and adverse taste ranking; assay type: in vivo, human; settings: for Onset of cooling action in the chest (in words): in vivo; for Duration of effects (in words): compared with the shorter DIPA analogs; for Duration Cool: 20 mg in 50 mL (0.4 mg/mL); for Min. (cooling): 50 mL beverage
Description: DIPA compounds dissolved in water have an unpleasant, bitter, and metallic taste. The goal of the experiments was to find an adjunct that would make the DIPA beverage palatable. The anatomic sites for bitterness (adverse taste) are primarily on the dorsal surface of the posterior one-third of the tongue. The coolness and refreshment areas are on the hypopharynx and the upper one-third of the esophagus (FIG. 1). These are two different anatomic sites. Sensations of coolness from the oral cavity and oropharynx are not the primary targets. The esophagus is in the center of the thorax. When its lumen feels “cool,” this is like turning on the central air conditioner for the body. The goal of the beverage is to turn on this central air conditioning for at least 30 min and preferably longer without adverse tastes in the oral cavity. That is, the goal is to produce cool in the center of the chest but without bitter taste. A standard procedure was set. The cooling agent at various concentrations was made up to 50 mL with a liquid in a plastic cup (Flak Tek, Inc. South Carolina), beaker, whiskey glass, or bottle. For example, the final concentration of the coolant in the test solution may range from 0.1 to 0.5 mg/mL. The temperature of the liquid was measured and then swallowed. For example, 50 mL could be swallowed in five gulps or sipped. The duration of cooling in the throat and chest was recorded at various intervals until the cooling disappeared. The ranking of adverse taste was on a scale of 0 (no adverse taste), 1 (mild taste), 2 (moderate taste), or 3 (adverse taste). The value was for at least three trials per beverage.
Examples of test procedures and results. The usual method was to prepare a 2-mL vial containing a DIPA dissolved in water. The contents of the vial were added to beverages such as beer, soda drinks, fruit juice, coffee, tea, or water. A taste-modulating adjunct such as a sweetener can be in the 2-mL vial or present in the beverage. The drink is gulped at about 5 mL per swallow. The time and temperatures are noted. The onset of coolness in the center of the upper chest usually occurs within 3 min. For active compounds, this effect was pleasant and, depending on dose, could last for 10 minutes, an hour, or more. Gulping the liquid was important. When held in the mouth, the drink is cool and may have taste, but cooling in the center of the chest is reduced. Thus, sipping is not the correct method of drinking. Using these methods, a bottle of beer (e.g., ˜330 mL containing 33 mg of DIPA-1-9), if drank in a leisurely setting for one hour, can provide comfortable body cooling for 3 hr. Similarly, a smaller bottle of carbonated soda water (e.g., 200 mL), containing 15 mg of DIPA-1-6 produced immediate cooling relief for 30 min for individuals, for example, taking a break from playing tennis in the heat. For pharmaceutical uses, a tinted bottle with 20 mg of DIPA-1-9 in 50 mL of water with Splenda's Monk Fruit dissolved in it would be palatable and relieve the discomforts of indigestion.

[2] = as above; assay type: in vivo, human; settings: for Duration of Cooling: 0.4 mg/mL in Monk fruit sweetened water (1 pack Splenda Monk Fruit per 100 mL), 30 mL, throat; for Dose sufficient for a robust, immediate cooling response: in 15 mL
[3] = Water solubility of 1-dialkylphosphorylalkanes; assay type: physicochemical
Description: The DIPA compounds are colorless liquids with a density less than water. These structures differ from those described by Rowsell and Spring U.S. Pat. No. 4,070,496 because '496 structures have their “head” (phosphine oxide group) covered by larger, more lipophilic groups. […] The applicant synthesized these analogs (which are achiral, by contrast to the structures of '496, which are >95% chiral). […] This increased water-solubility is striking (Table 3). Additional details on the bioactivity and pharmacology of these DIPA can be found in the paper by Yang et al., [(2017). A novel TRPM8 agonist relieves dry eye discomfort. BMC Ophthalmology, 17(1). https://doi.org/10.1186/s12886-017-0495-2], incorporated herein by reference.

[4] = target: TRPM8 receptor (Homo sapiens, UniProt Q7Z2W7); assay: TRPM8 receptor agonist activity; assay type: cell-based
Sequence of TRPM8 receptor (Q7Z2W7 whole entry): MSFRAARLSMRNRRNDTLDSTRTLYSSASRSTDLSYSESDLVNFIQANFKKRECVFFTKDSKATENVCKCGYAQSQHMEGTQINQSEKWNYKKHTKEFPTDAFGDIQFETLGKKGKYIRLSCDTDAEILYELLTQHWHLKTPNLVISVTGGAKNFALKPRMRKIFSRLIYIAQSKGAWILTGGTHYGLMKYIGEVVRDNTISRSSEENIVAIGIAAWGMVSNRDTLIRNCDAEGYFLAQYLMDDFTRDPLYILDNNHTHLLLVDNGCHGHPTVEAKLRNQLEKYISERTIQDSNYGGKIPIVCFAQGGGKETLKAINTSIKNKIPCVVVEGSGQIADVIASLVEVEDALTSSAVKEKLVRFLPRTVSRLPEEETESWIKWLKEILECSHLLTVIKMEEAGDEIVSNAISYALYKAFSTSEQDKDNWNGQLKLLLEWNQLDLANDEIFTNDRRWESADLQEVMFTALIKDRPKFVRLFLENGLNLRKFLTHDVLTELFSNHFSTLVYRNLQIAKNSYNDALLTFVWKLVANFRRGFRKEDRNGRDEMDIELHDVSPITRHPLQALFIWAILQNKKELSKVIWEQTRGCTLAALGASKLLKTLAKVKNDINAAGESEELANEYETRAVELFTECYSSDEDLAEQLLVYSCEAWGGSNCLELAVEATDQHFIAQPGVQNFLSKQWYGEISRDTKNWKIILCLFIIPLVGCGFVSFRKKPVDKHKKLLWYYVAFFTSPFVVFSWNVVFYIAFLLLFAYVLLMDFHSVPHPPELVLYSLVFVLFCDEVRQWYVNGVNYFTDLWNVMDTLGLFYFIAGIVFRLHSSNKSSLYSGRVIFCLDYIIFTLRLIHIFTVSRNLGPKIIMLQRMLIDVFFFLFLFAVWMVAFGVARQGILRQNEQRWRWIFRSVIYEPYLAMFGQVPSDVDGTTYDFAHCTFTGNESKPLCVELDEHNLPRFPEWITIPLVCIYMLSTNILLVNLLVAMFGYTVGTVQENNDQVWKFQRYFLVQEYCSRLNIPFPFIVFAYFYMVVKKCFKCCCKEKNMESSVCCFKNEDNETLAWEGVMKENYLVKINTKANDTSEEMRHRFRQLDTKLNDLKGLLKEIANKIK

[5] = DIPA cooling on the effects of a hotpot meal; assay type: in vivo, human; settings: 0.5 mg/mL in water containing 1 packet of Splenda's Monk Fruit sweetener per 200 mL
Description: DIPA Cooling on the effects of a “hotpot” meal. A hotpot meal has been prevalent in central China (Sichuan province) for over a thousand years and has become very popular in many parts of Asia today. It is a family affair with a boiling pot of broth in the middle of the table, and everyone cooks food in the broth. Exceptionally spicy chili pepper is in the soup, and even in summer, the air-conditioning is off, so everybody sweats. The general idea is to get so hot that one becomes desensitized to the hot weather. […] Another method for relief from the hotpot is to incorporate it into a beer at DIPA-1-9 0.1 mg/ml, and commercialize it as “HotPot Beer.”

[6] = target: T1, TRPV1 (Homo sapiens, UniProt Q8NER1); assay: Activation of TRPV1-transfected cells; assay type: cell-based
T1 construct: expressed in transfected cells
T1 sequence (Q8NER1 whole entry): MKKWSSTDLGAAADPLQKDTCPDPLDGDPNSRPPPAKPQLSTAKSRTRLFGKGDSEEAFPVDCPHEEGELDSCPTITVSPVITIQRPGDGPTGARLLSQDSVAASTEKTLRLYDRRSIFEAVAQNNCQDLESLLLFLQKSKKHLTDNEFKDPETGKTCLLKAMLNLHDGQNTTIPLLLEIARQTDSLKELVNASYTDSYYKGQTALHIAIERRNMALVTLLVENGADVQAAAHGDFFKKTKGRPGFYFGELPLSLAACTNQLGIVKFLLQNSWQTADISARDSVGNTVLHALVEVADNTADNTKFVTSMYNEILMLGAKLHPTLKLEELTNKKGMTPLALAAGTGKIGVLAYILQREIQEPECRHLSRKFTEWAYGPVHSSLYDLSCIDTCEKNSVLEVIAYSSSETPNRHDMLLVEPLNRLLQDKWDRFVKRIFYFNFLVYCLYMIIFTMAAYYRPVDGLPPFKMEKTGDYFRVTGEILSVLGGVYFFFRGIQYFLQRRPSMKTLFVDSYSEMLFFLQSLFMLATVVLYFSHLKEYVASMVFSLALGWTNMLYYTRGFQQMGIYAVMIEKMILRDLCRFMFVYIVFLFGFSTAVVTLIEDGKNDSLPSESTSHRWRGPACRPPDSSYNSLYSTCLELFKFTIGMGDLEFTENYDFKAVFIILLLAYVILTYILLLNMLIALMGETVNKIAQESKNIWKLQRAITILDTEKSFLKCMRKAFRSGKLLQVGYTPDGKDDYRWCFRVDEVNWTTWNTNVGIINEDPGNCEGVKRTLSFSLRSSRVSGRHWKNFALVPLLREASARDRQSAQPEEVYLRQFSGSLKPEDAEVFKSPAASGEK

[7] = target: T2, TRPA1 (Homo sapiens, UniProt O75762); assay: Activation of TRPA1-transfected cells; assay type: cell-based
T2 construct: expressed in transfected cells
T2 sequence (O75762 whole entry): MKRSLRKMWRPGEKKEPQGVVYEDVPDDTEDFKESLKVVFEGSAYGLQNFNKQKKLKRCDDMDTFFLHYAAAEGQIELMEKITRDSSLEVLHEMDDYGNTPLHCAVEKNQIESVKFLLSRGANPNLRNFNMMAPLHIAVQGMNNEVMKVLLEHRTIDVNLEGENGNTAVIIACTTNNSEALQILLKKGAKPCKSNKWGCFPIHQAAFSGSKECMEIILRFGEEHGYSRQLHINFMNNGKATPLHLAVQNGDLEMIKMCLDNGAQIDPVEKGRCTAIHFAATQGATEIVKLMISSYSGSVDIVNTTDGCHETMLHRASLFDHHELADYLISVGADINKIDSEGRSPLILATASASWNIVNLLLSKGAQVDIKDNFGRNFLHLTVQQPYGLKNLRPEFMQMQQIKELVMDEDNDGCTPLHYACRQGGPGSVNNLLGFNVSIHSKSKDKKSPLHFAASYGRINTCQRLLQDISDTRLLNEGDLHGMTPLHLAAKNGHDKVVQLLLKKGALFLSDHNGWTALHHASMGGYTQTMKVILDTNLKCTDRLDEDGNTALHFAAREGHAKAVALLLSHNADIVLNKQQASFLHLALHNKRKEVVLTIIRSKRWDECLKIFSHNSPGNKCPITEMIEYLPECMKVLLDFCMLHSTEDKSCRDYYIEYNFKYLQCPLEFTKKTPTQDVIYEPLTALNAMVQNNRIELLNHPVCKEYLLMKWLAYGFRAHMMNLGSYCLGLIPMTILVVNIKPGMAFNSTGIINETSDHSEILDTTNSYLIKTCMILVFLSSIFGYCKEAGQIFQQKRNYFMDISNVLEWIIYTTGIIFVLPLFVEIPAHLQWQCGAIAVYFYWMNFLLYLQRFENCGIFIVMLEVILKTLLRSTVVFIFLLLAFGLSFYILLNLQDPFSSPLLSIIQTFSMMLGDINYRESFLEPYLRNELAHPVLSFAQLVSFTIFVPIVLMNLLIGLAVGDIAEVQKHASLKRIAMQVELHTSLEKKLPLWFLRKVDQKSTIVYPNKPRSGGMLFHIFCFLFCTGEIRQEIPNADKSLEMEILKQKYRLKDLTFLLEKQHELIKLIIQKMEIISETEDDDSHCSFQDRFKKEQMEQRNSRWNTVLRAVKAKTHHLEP

## CCCCCP(=O)(C(C)C)C(C)C [DIPA-1-5, 1-Di(isopropyl)-phosphinoyl-pentane]
[1]
  Onset of cooling action in the chest (in words): immediate
[2]
  Duration of Cooling: 12 min
  Dose sufficient for a robust, immediate cooling response: 10 mg

## CCCCCCCP(=O)(C(C)C)C(C)C [DIPA-1-7, 1-Di(isopropyl)-phosphinoyl-heptane]
[1]
  Onset of cooling action in the chest (in words): immediate
[2]
  Duration of Cooling: 36 min

## CCCCCCCCP(=O)(C(C)C)C(C)C [DIPA-1-8, 1-Di(isopropyl)-phosphinoyl-octane]
[1]
  Duration of effects (in words): more long-lasting
[1]; in a whiskey glass
  Effective dose: 15 mg
[2]
  Duration of Cooling: 43 min

## CCCCCP(=O)(C(C)CC)C(C)CC (centres unmarked) [di-sec-butyl- pentane]
[3]
  Water solubility: 22 mg/mL

## CCCCCCP(=O)(C(C)C)C(C)C [DIPA-1-6, 1-Di(isopropyl)-phosphinoyl-hexane]
[1]; 200 mL carbonated soda water containing 15 mg
  Duration of immediate cooling relief: 30 min
[1]
  Onset of cooling action in the chest (in words): immediate
[2]
  Duration of Cooling: 20 min
  Dose sufficient for a robust, immediate cooling response: 10 mg

## CCCCCCCCCCP(=O)(C(C)C)C(C)C [DIPA-1-10]
[4]
  EC50: inactive
[3]
  Water solubility: <3 mg/mL
[2]
  Duration of Cooling: 0 min

## CCCCCCCCCP(=O)(C(C)C)C(C)C [DIPA-1-9, 1-Diisopropyl-phosphinoyl-nonane]
[5]
  Onset of relief: within several minutes
  Relief after a hotpot meal (in words): relieves the pain in the oral cavity and throat
[6]
  Activation of TRPV1-transfected cells: does not activate
[7]
  Activation of TRPA1-transfected cells: does not activate
[1]; 0.4 mg/L, apple juice (Martinelli, Mott's), 21 °C
  Duration: 34 min
[1]; 0.4 mg/L, grape juice (Welch Grape), 20 °C
  Duration: 35 min
[1]; 0.4 mg/L, guarana juice soda (Guarana Antarctica), 10 °C
  Duration: 40 min
[1]; 0.4 mg/L, orange juice (fresh-squeezed), 8 °C
  Duration: 40 min
[1]; 0.4 mg/L, sweetened soda (Coca-Cola), 7 °C
  Duration: 25 min
[1]; 0.4 mg/L, wine (Moscato d'Asti), 8 °C
  Duration: 36 min
[1]; 0.4 mg/mL, hot cappuccino drink (3 Coracoes, Brazil), 70 °C
  Duration: 30 min
[1]; 0.4 mg/mL, hot coffee + herbal sweetener (117 + Stevia extracts), 75 °C
  Duration: 36 min
[1]; 0.4 mg/mL, hot coffee cream/sugar (117, Nescafe), 65 °C
  Duration: 35 min
[1]; 0.4 mg/mL, hot coffee-no cream or sugar (117, Nescafe), 62 °C
  Duration: 30 min
[1]; 0.4 mg/mL, hot water + monk fruit (Splenda monk fruit), 50 °C
  Duration: 42 min
[1]; 0.4 mg/mL, hot water + monk fruit (Splenda monk fruit), 70 °C
  Duration: 38 min
[1]; 0.4 mg/mL, iced cold cappuccino (Starbuck's frappaccino), 8 °C
  Duration: 25 min
[1]; 0.4 mg/mL, red tea (Peach-Ceylon, no sweetener), 46 °C
  Duration: 31 min
[1]; 0.4 mg/mL, sweetened tea (Ito En + 10% sucrose), 10 °C
  Duration: 38 min
[1]; 0.4 mg/mL, sweetened tea (Ito En + Truvia or Monk's Fruit), 10 °C
  Duration: 40 min
[1]; 0.4 mg/mL, unsweetened green tea (Ito En), 10 °C
  Duration: 35 min
[1]; carbonated water (Perrier, La Croix), 8 °C
  Duration Cool: 45 min
[1]; water (Crystal Geyser), 10 °C
  Duration Cool: 48 min
[1]; water (Crystal Geyser), 25 °C
  Duration Cool: 42 min
[1]; water (Crystal Geyser), 74 °C
  Duration Cool: 45 min
[1]; water + herbal sweetener (+Stevia leaf), 8 °C
  Duration Cool: 40 min
[1]; water + herbal sweetener (+Stevia leaf), 22 °C
  Duration Cool: 35 min
[1]; water + herbal sweetener (+Stevia leaf), 72 °C
  Duration Cool: 32 min
[1]; water + synthetic sweetener (Neotame at 0.2 mg/mL), 10 °C
  Duration Cool: 40 min
[1]; 0.2 mg/mL + Stevia, 20 °C
  Min. (cooling): 12 min
[1]; 0.4 mg/mL + Stevia, 20 °C
  Min. (cooling): 35 min
[1]; 0.4 mg/mL + Sucrose (10%), 20 °C
  Min. (cooling): 42 min
[1]; 0.8 mg/mL + Stevia, 20 °C
  Min. (cooling): 55 min
[1]; 0.8 mg/mL + Sucrose (10%), 20 °C
  Min. (cooling): 39 min
[1]; 0.8 mg/mL + Sucrose (15%), 20 °C
  Min. (cooling): 45 min
[1]; Sake (Japanese rice wine), 10 °C
  Duration: 32 min
[1]; beer (Heineken), 7 °C
  Duration: 44 min
[1]; bottle of beer ~330 mL containing 33 mg, drunk over one hour
  Duration of comfortable body cooling: 3 h
[1]
  Duration of effects (in words): more long-lasting
[1]; ginger ale (Canada Dry), 11 °C
  Duration: 25 min
[1]; ginger beer, juice (Q beer, Suja), 9 °C
  Duration: 40 min
[1]; in a standard beer bottle
  Effective dose: 33 mg
[1]; non-alcoholic beer (Heineken 00), 7 °C
  Duration: 40 min
[1]; tonic water with quinine (Schweppes), 7 °C
  Duration: 42 min
[1]; wheat ale (Blue Moon), 9 °C
  Duration: 35 min
[2]
  Duration of Cooling: 48 min
